Measurements as given in patent US20240407315A1, “PLANT DISEASE […] METHOD, PLANT DISEASE […] DEVICE, AND PLANT DISEASE […] AGENT” (TOHOKU UNIVERSITY, priority 2021, published 2024).

Assays:
[1] = system: Ca^2+ signals (calcium ion response); assay: Live GFP fluorescence imaging of Ca^2+ signals in GCaMP-expressing plants after gas exposure; type: in vivo, Arabidopsis thaliana; conditions: about 200 ppm or lower, 10 seconds
Text: An experiment was implemented, in which a plant was exposed to dinitrogen pentoxide to confirm induction of Ca^2+ signals (calcium ion response) as information of injuries similar to insect damages or physical injuries, using the plant disease resistance inducing device 10 illustrated in FIG. 1.
First, Ca^2+ signals that had appeared by exposing the whole body of Arabidopsis thaliana to dinitrogen pentoxide were observed. In the experiment, the concentration of dinitrogen pentoxide in the gas for the exposure was set to about 200 ppm or lower, and the exposure time was set to 10 seconds. For comparison, Ca^2+ signals that had appeared by exposing the whole body of Arabidopsis thaliana to dry air were also observed under the same condition. FIG. 2 presents states of Arabidopsis thaliana before the exposure, and states of the Ca^2+ signals 60 seconds after the termination of the exposure.
Next, Ca^2+ signals that had appeared by exposing one leaf of Arabidopsis thaliana to dinitrogen pentoxide were observed. In the experiment, only one leaf of Arabidopsis thaliana (leaf surrounded by dotted line in FIG. 3(a)) was exposed to dinitrogen pentoxide. The concentration of dinitrogen pentoxide in the gas for the exposure was set to about 200 ppm or lower, and the exposure time was set to 10 seconds.

[2] = system: PDF1.2, ORA59, PAD3, CYP71A12, NIT2, and WRKY26; assay: RNA sequencing (RNA-seq) gene expression analysis after gas exposure; type: in vivo, Arabidopsis thaliana
Protocol: A plant was exposed to dinitrogen pentoxide using the plant disease resistance inducing device 10 illustrated in FIG. 1, and a gene expression was analyzed by RNA sequencing (RNA-seq) and quantitative real-time PCR (qRT-PCR). In the RNA-seq analysis, Arabidopsis thaliana at 5 week of seeding was exposed to dinitrogen pentoxide once a day for 3 days. In each exposure, Arabidopsis thaliana was exposed to dinitrogen pentoxide from a distance of 5 cm for 20 seconds. A concentration of dinitrogen pentoxide in the gas for the exposure was set to about 200 ppm or lower. Twenty-four hours after the last exposure, leaves that had fully developed were collected, from which the total RNA was extracted, followed by RNA-seq analysis. For comparison, as a control plot, a leaf exposed to dry air under the same condition was also subjected to the RNA-seq analysis.
Genes with expression levels not less than twice as high as that of the control plot, induced by the dinitrogen pentoxide exposure, and genes with reduced expression levels not more than half as high as that of the control plot were extracted. As a result, 1304 genes with twice or more of induced expression levels, and 1209 genes with expression levels reduced to half or less were found.
Based on the result of the RNA-seq, six genes: PDF1.2, ORA59, PAD3, CYP71A12, NIT2, and WRKY26, were selected as candidate marker genes for the dinitrogen pentoxide exposure. Herein, PDF1.2 is an antimicrobial peptide gene and is often used as a marker gene for jasmonic acid and ethylene. ORA59 is a gene related to regulation of PDF1.2 expression. PAD3 is a gene related to biosynthesis of an antimicrobial substance camalexin, which is synthesized and induced by jasmonic acid. CYP71A12 is a gene related to a tryptophan metabolism at an upstream of PAD3. NIT2 is a gene related to biosynthesis of auxin that is another plant hormone derived from tryptophan. WRKY26 is a gene which, as is known, functionally overlaps with a transcription factor WRKY33 that regulates jasmonic acid signals.

[3] = system: PDF1.2, ORA59, PAD3, CYP71A12, NIT2, and WRKY26; assay: qRT-PCR time course of marker gene expression relative to ACT2 gene; type: in vivo, Arabidopsis thaliana; conditions: single 20 seconds exposure from 5 cm
Protocol: Subsequently, the expression of each of the selected genes was analyzed by qRT-PCR. In the qRT-PCR, Arabidopsis thaliana at 5 week of seeding was exposed to dinitrogen pentoxide from a distance of 5 cm for 20 seconds. The dinitrogen pentoxide exposure was conducted only once. The whole above-ground part was sampled 1, 3, 6, 12, 24, and 48 hours after the exposure, from which the total RNA was extracted and then subjected to qRT-PCR. Using ACT2 gene as a control for endogenous genes, an expression level of each gene was determined as a value relative to the ACT2 gene expression level (Relative expression to ACT2 gene).
For comparison, time-dependent changes in the expression levels of each gene in Arabidopsis thaliana exposed to dry air under the same condition were also determined, and the results are presented in FIG. 5. For the experiment, three independent individuals were used, and the mean values and standard deviations of the three individuals are presented in FIG. 5. The same experiment was conducted twice independently, and the same results were obtained.

[4] = system: cucumber mosaic virus (CMV) Macula lutea strain; assay: Suppression of viral growth: ELISA of virus coat protein in inoculated leaves; type: in vivo; conditions: Arabidopsis thaliana, 20 seconds once a day for 3 days, about 200 ppm or lower; inoculated 24 hours after last exposure; measured 2 days after inoculation
Text: A plant was exposed to dinitrogen pentoxide using the plant disease resistance inducing device 10 illustrated in FIG. 1, and subjected to an experiment for examining an effect of suppressing viral growth. In the experiment, Arabidopsis thaliana at 5 week of seeding was exposed to dinitrogen pentoxide once a day for 3 days. In each exposure, Arabidopsis thaliana was exposed to dinitrogen pentoxide from a distance of 5 cm for 20 seconds. A concentration of dinitrogen pentoxide in the gas for the exposure was set to about 200 ppm or lower. Twenty-four hours after the last exposure, leaves that had fully developed were inoculated with a cucumber mosaic virus (CMV) Macula lutea strain by a friction inoculation method. Two days after the CMV inoculation, viral loads in the inoculated leaves were quantitatively measured by Enzyme-Linked Immuno Sorbent Assay (ELISA) method using an anti-CMV coat protein antibody.
For comparison, virus loads of Arabidopsis thaliana exposed to dry air and inoculated with CMV under the same condition, and Arabidopsis thaliana exposed to dry air and not inoculated with CMV (Mock) under the same condition were also quantitatively measured, and the results are presented in FIG. 6. For the experiment, six independent individuals were used, and the mean values and standard deviations of the six individuals are presented in FIG. 6. […]

[5] = system: Arabidopsis thaliana; assay: Observation of leaf damage after gas exposure; type: in vivo; conditions: immediately after exposure and the next day
[6] = 20 seconds once a day for 3 days, about 200 ppm or lower, leaves 24 hours after last exposure

Row | SMILES | time to activation of the Ca^2+ signals in the leaf directly exposed ([1]; one leaf exposed) | spread of Ca^2+ signals after exposure of one leaf ([1]; one leaf exposed, observed up to 6 minutes) | generation of Ca^2+ signals over the plant body ([1]; whole body exposed) | Ca^2+ signals after whole-body exposure ([1]; whole body exposed, observed 60 seconds after exposure, dry air gave no signals) | gene ontology analysis result ([2]; 20 seconds once a day for 3 days, about 200 ppm or lower) | number of genes with expression levels reduced to half or less vs control plot [2, 6] [genes] | number of genes with twice or more of induced expression levels vs control plot [2, 6] [genes] | At-N2O5-_TPM ([2]; gene CYP71A12, control 0.000000) [TPM] | At-N2O5-_TPM ([2]; gene NIT2, control 0.000000) [TPM] | At-N2O5-_TPM ([2]; gene ORA59, control 0.074135) [TPM] | At-N2O5-_TPM ([2]; gene PAD3, control 0.312642) [TPM] | At-N2O5-_TPM ([2]; gene WRKY26, control 0.035706) [TPM] | time after exposure from which ODR59 expression was induced [3] [h] | time after exposure from which PDF1.2 expression was induced [3] [h] | time of peak of transiently induced NIT2 expression [3] [h] | time until which high ODR59 expression level was maintained [3] [h] | time until which high PDF1.2 expression level was maintained [3] | CMV growth (accumulation of virus coat protein) compared to dry air exposure [4] | state of leaves after exposure [5]
1 | O=[N+]([O-])O[N+](=O)[O-] [dinitrogen pentoxide] | about 20 seconds | spread to all leaves in the whole body through sieve tubes | slowly generated over the whole body | Ca^2+ signals were observed | jasmonic acid signals were activated | 1209 | 1304 | 0.797 | 1.917 | 2.341 | 1.293 | 0.7565 | 1 | 6 | 12 | 48 | at least 48 hours | significantly suppressed | not to curl up but to grow without withering
2 | O=[O+][O-] [ozone, reference compound] |  |  |  |  |  |  |  |  |  |  |  |  |  |  |  |  |  |  | curl up immediately after the ozone exposure and wither the next day
